Measured values taken from PMC11549994, “A dTDP-L-rhamnose 4-epimerase required for glycopeptidolipid biosynthesis in Mycobacterium abscessus” (The Journal of Biological Chemistry, 2024).
Like-named read-outs stand apart in the source and are kept apart here.

Experiments:
[1] = test system: T1, M. abscessus CIP104536T (R); assay: microbe, parasite or virus in culture; parameters: species or system Mycobacteroides abscessus CIP104536T; antibiotic susceptibility testing, MIC of drugs against M. abscessus strains; conditions: Mycobacteroides abscessus, read-out: MIC (µg/mL) (phenotypea) / R
T1 construct: CIP104536T rough (R) morphotype
Experimental: (§1) M. abscessus CIP104536^T (S) and CIP104536^T (R) strains used in this study were previously sequenced and their genomic differences identified and characterized ([13], [60]). Mycobacteria were grown in Middlebrook 7H9 broth (BD) supplemented with 0.025% tyloxapol and 10% oleic acid-albumin-dextrose-catalase (OADC) enrichment (7H9^OADC) or on Middlebrook 7H10 agar (BD) containing 10% OADC (7H10^OADC) at 37 °C, with antibiotics when required. A Bio-Rad Gene pulser (25 μF, 2500 V, 800 Ω) was used to transform electrocompetent mycobacteria. After transformation, strains carrying the pMV306 ([48]) derivatives were selected on 250 μg/ml kanamycin.

[2] = test system: T2, M. abscessus CIP104536T (S); assay: microbe, parasite or virus in culture; parameters: species or system Mycobacteroides abscessus CIP104536T; antibiotic susceptibility testing, MIC of drugs against M. abscessus strains; conditions: Mycobacteroides abscessus, read-out: MIC (µg/mL) (phenotypea) / S
T2 construct: CIP104536T smooth (S) morphotype
Experimental: as §1

[3] = test system: T2, M. abscessus CIP104536T (S); assay: microbe, parasite or virus in culture; parameters: species or system Mycobacteroides abscessus CIP104536T; antibiotic susceptibility testing, MIC of drugs against M. abscessus strains; conditions: Mycobacteroides abscessus, read-out: MIC (µg/mL) (phenotypea) / S; remark: listed apart in the source
Experimental: as §1

[4] = test system: T1, M. abscessus CIP104536T (R); assay: microbe, parasite or virus in culture; parameters: species or system Mycobacteroides abscessus CIP104536T; antibiotic susceptibility testing, MIC of drugs against M. abscessus strains; conditions: Mycobacteroides abscessus, read-out: MIC (µg/mL) (phenotypea) / R; remark: listed apart in the source
Experimental: as §1

[5] = molecular target: T3, MAB_4111c (Tle) (Mycobacteroides abscessus, UniProt B1MIG3); assay: reverse reaction, formation of dTDP-Rha (data not shown); format: biochemical; conditions: 60 min, also the product of the forward reaction, partially purified Ni-bead fraction
T3 construct: full-length, 353 residues, six-histidine tag from pET30 (kept), expressed in E. coli BL21 Star DE3; partially purified Ni-bead-enriched fraction
T3 sequence (B1MIG3 entry or part of it): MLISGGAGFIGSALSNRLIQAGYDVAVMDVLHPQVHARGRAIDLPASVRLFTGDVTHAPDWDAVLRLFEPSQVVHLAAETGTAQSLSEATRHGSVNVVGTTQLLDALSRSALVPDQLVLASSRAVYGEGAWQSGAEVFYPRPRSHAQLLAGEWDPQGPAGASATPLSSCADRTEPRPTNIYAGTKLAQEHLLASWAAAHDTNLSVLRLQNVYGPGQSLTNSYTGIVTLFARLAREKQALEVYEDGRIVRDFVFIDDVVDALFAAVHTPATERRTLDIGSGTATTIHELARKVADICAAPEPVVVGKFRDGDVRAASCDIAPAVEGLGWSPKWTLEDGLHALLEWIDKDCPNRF

For COc1c(N2C[C@@H]3CCCN[C@@H]3C2)c(F)cc2c(=O)c(C(=O)O)cn(C3CC3)c12 [Moxifloxacin], the MIC [1] was over 8 µg/mL and the MIC [2] was over 8 µg/mL.
Compound C[C@@H](O)[C@H]1C(=O)N2C(C(=O)O)=C(SCCNC=N)C[C@H]12 [Imipenem] has an MIC [1] of 64 µg/mL and an MIC [2] of 64 µg/mL.
CO/N=C(\C(=O)N[C@@H]1C(=O)N2C(C(=O)[O-])=C(C[N+]3(C)CCCC3)CS[C@H]12)c1csc(N)n1 [Cefepime] was tested, and the MIC [1] was over 32 µg/mL and the MIC [2] was over 32 µg/mL.
CO/N=C(\C(=O)N[C@@H]1C(=O)N2C(C(=O)O)=C(CSc3nc(=O)c(O)nn3C)CS[C@H]12)c1csc(N)n1 [Ceftriaxone] was tested, and the MIC [1] was over 64 µg/mL and the MIC [2] was over 64 µg/mL.
In the case of CC(=O)NC[C@H]1CN(c2ccc(N3CCOCC3)c(F)c2)C(=O)O1 [Linezolid], the MIC [1] is reported as 32 µg/mL and the MIC [2] is reported as 32 µg/mL.
In the case of CN(C)c1cc(NC(=O)CNC(C)(C)C)c(O)c2c1C[C@H]1C[C@H]3[C@H](N(C)C)C(O)=C(C(N)=O)C(=O)[C@@]3(O)C(O)=C1C2=O [Tigecycline], the MIC [1] is reported as 1 µg/mL and the MIC [2] is reported as 0.5 µg/mL.
Compound CN(C)c1ccc(O)c2c1C[C@H]1C[C@H]3[C@H](N(C)C)C(O)=C(C(N)=O)C(=O)[C@@]3(O)C(O)=C1C2=O [Minocycline] has an MIC [1] of over 8 µg/mL and an MIC [2] of over 8 µg/mL.
NCC[C@H](O)C(=O)N[C@@H]1C[C@H](N)[C@@H](O[C@H]2O[C@H](CN)[C@@H](O)[C@H](O)[C@H]2O)[C@H](O)[C@H]1O[C@H]1O[C@H](CO)[C@@H](O)[C@H](N)[C@H]1O [Amikacin] was tested, and the MIC [1] was 32 µg/mL and the MIC [2] was 16 µg/mL.
In the case of CC[C@H]1OC(=O)[C@H](C)[C@@H](O[C@H]2C[C@@](C)(OC)[C@@H](O)[C@H](C)O2)[C@H](C)[C@@H](O[C@@H]2O[C@H](C)C[C@H](N(C)C)[C@H]2O)[C@](C)(OC)C[C@@H](C)C(=O)[C@H](C)[C@@H](O)[C@]1(C)O [Clarithromycin], the MIC [3] is reported as over 16 µg/mL, the MIC [1] is reported as 4 µg/mL and the MIC [2] is reported as 8 µg/mL. For the same compound, the MIC [4] was over 16 µg/mL.
Compound CO[C@H]1/C=C/O[C@@]2(C)Oc3c(C)c(O)c4c(c3C2=O)C2=NC3(CCN(CC(C)C)CC3)NC2=C(NC(=O)/C(C)=C\C=C\[C@H](C)[C@H](O)[C@@H](C)[C@@H](O)[C@@H](C)[C@H](OC(C)=O)[C@@H]1C)C4=O [Rifabutin] has an MIC [1] of 16 µg/mL and an MIC [2] of 64 µg/mL.
For CO[C@@]1(NC(=O)Cc2cccs2)C(=O)N2C(C(=O)O)=C(COC(N)=O)CS[C@@H]21 [Cefoxitin], the MIC [1] was 128 µg/mL and the MIC [2] was 64 µg/mL.
For C[C@H]1c2cccc(O)c2C(=O)C2=C(O)[C@]3(O)C(=O)C(C(N)=O)=C(O)[C@@H](N(C)C)[C@@H]3[C@@H](O)[C@@H]21 [Doxycycline], the MIC [1] was over 16 µg/mL and the MIC [2] was over 16 µg/mL.
For NC[C@H]1O[C@H](O[C@H]2[C@H](O)[C@@H](O[C@H]3O[C@H](CO)[C@@H](O)[C@H](N)[C@H]3O)[C@H](N)C[C@@H]2N)[C@H](N)C[C@@H]1O [Tobramycin], the MIC [1] was 16 µg/mL and the MIC [2] was 16 µg/mL.
With Cc1cn([C@H]2C[C@H](O)[C@@H](COP(=O)(O)OP(=O)(O)O[C@H]3O[C@@H](C)[C@@H](O)[C@@H](O)[C@H]3O)O2)c(=O)[nH]c1=O [dTDP-6-d-Tal] the “reverse reaction, formation of dTDP-Rha (data not shown)” value [5] was “reverse reaction using dTDP-6-d-Tal as a substrate and observed the formation of dTDP-Rha”.
